In ChEMBL document CHEMBL5050852, “Kif18a inhibitors” (2021):

Molecular target: T1, Kinesin-like protein KIF18A (Homo sapiens, UniProt Q8NI77)
T1 sequence (Q8NI77 whole entry): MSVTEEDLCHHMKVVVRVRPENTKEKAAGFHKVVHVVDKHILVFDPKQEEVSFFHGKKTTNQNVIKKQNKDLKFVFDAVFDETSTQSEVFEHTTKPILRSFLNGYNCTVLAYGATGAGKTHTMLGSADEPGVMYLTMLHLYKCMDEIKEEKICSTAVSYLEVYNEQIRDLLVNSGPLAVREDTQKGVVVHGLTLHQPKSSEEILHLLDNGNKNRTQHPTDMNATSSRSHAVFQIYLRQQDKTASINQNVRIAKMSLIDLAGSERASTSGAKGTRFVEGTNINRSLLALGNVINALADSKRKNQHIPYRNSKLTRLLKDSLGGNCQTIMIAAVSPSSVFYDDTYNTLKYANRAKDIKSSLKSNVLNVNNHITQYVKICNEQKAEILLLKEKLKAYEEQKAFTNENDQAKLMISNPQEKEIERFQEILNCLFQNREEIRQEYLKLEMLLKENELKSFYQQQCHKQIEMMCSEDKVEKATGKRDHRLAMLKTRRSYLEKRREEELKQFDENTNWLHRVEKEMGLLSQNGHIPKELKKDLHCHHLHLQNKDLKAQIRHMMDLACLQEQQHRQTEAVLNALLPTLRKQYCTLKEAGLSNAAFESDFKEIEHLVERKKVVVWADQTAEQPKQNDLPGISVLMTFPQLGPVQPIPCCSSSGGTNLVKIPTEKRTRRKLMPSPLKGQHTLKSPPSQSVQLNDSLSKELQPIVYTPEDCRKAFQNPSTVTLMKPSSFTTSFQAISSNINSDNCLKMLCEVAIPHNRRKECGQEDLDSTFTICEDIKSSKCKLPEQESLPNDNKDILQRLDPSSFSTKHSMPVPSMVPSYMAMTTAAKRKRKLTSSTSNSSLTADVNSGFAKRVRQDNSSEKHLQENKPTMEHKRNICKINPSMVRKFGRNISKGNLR
Assay: Inhibition of recombinant His-tagged human KIF18A (1 to 467 residues) expressed in baculovirus expression system assessed as inhibition of microtubule-stimulated ATPase activity preincubated for 15 mins followed by ATP addition and further incubated for 15 mins and measured after 40 mins by ADP-Glo reagent based assay

Row | Structure (SMILES) | IC50
1 | CC(C)(C)NS(=O)(=O)c1cccc(NC(=O)c2ccc(CS(=O)(=O)C(C)(C)C)cc2N2CCC3(CC2)CC3)c1 | 76 nM
2 | CC(C)(C)NS(=O)(=O)c1cccc(NC(=O)c2ccc(NS(=O)(=O)CCO)cc2N2CCC3(CC2)CC3)c1 | 51 nM
3 | CCS(=O)(=O)Cc1ccc(C(=O)Nc2cccc(S(=O)(=O)NC(C)(C)C)c2)c(N2CCC3(CC2)CC3)c1 | 75 nM

Now from value to molecule:

Row | IC50 | Structure (SMILES)
4 | 198 nM | CC(C)(CO)Nc1cccc(NC(=O)c2ccc(S(=O)(=O)NC3(C)COC3)cc2N2CCC3(CC2)CC3)c1
5 | 131 nM | C[C@@H]1CN(c2cc(F)cc(NC(=O)c3ccc(NS(=O)(=O)CCO)cc3N3CCC4(CC3)CC4)c2)CCO1
